Experimental data: patent publication US20110053849A1 (priority 2006, published 2011)

Columns and labels:
LITAF promoter = assay: Luciferase reporter assay of LITAF promoter activity in p53-null H1299 cells; type: cell-based, human; conditions: for Luciferase activity with peptide alone: peptide alone without pGLP700, FIG. 7 #5 and #6
Description: Luciferase assay. […] Cells were then incubated overnight in appropriate media (DMEM or RPMI 1640)+10% FBS at 37° C., in a humidified atmosphere containing 5% CO2. The β-galactosidase gene was included in all transfections. Cells were harvested and the luciferase activity of each lysate was measured (Turner Designs luminometer model TD-20/20) using a commercial kit (luciferase reporter assay system, Promega) according to the protocol provided by the manufacturer. Finally, the data were normalized to β-galactosidase expression.
The promoter activity of pGLP700 alone was assigned the maximal value of 100%. […] Deletions, indicated by ̂, correspond to aa 101-167 in construct A12, aa 167-234 in B1, aa 235-300 in C6 and aa 156-178 in D10. Construct p53LFB12 contained only 7 aa (KQSQHMT [SEQ ID NO: 1]) from the region (aa 164-170).
The proteins extracted from each transfection of construct plus pGLP700 compared to the transfection of pGLP700 alone in p53-null H1299 cells were measured by luciferase assay. Triplicate assays were performed. […] Construct C6, containing aa 167 and its flanking sequences, reduced LITAF promoter activity to 22% of control even though it lacked aa 235-300.
Furthermore, short peptides (pep12) that contain 7 residues (aa 164-170) (KQSQHMT [SEQ ID NO: 1]) corresponding to p53LFB12 and another peptide (pepSC) with reverse sequence of pep12 as a negative control, were synthesized and analyzed using the luciferase assay. Cultures of p53-null H1299 cells (5×10^6) were transfected with pGLP700 (#2-4, #7-12), pGLP550 (#13 and 14) or pGLP500 (#15 and 16) plus p53LFB12 (#4) or plus 12REV (#3) as control using Lipofactamine 2000 (Invitrogen) for 3 hours, washed with PBS and further transfected with peptide, 10 μg/ml (#10, 12, 14 and 16), then cells were incubated in appropriate medium at 37° C. overnight. Luciferase activities of the lysates from each culture of treated cells were measured. The extracts from untreated (#1), pepSC alone (#5), pep12 alone (#6), pGLP700 alone (#2 and 11, pGLP550 alone (#13) or pGLP500 alone (#15) were used as controls. Triplicate assays were performed.

TNF-α = assay: ELISA of LPS-induced TNF-α production in human monocytes; type: cell-based; conditions: 0.1 μg/ml E. coli LPS 3 hours, then peptide 16 hours, FIG. 8A
Description: ELISA. Human monocytes (1×10^6) were stimulated with 0.1 μg/ml E. coli LPS for 3 hrs, washed with PBS, then further treated with peptides by Chariot kit (Active Motif, Carlsbad, Calif.). Cells were then incubated overnight in RPMI 1640 medium supplemented with 10% FBS at 37° C., in a humidified atmosphere containing 5% CO2. Culture supernatants were harvested and centrifuged at 1,500×g to remove cell debris, then concentrations of human TNF-α in the supernatant of each treated or untreated control cell condition were measured by ELISA (Abraxis, Warminster, Pa.). The ELISA immunoreactivity was quantified using a VerSaDoc Imaging System (BIO-RAD) and graphed.
To further examine the effects of pep12 on LPS-induced LITAF gene expression and LITAF-dependent TNF-α production, analyses of Western blot and ELISA were performed. Human monocytes (1×10^6) were stimulated with 0.1 μg/ml E. coli LPS for 3 hours and washed with PBS prior to treatment with peptides for 16 hours with either pep12 (#5) or pepSC as control (#4) using a Chariot kit (Active motif, Carlsbad, Calif.) or transfected with no DNA (#1) or with pGLP700 DNA (#2) as negative controls or with p53-1 DNA (#3) as a positive control. […] The supernatants from cell cultures were measured by ELISA (Abraxis, Warminster, Pa.) and the extracts were detected by Western blot with antibodies against LITAF and actin (as a control).

human cytokines = assay: Bioplex human monocyte cytokine assay; type: cell-based; conditions: E. coli LPS + pep12 (10 µg or 100 υg)
Description: This assay was performed to determine the effectiveness of the peptide of the present invention [pep12: SEQ ID NO.: 1] to inhibit various human cytokines. The assay performed was a human monocyte assay well known to those practiced in the art. The kit used here (trade name Bioplex) was supplied by Bio-Rad (Hercules, Calif.). Other commercially available assays are known and suitable for use in the assay described here.
Bar (1) is the carrier solution alone (chariot alone); bar (2) is E. coli LPS stimulant; bar (3) is E. coli LPS+pepSC (scramble peptide); bar (4) is E. coli LPS+pep12 (10 υg); bar (5) is E. coli LPS+pep12 (100 υg). The cytokines tested include Human (Hu) IL-2, Hu Il-5, Hu Il-7, Hu Il-12 Hu Eotaxin, Hu Il-13, Hu-PDGF-β, Hu IL-1β, Hu-15, Hu IFN-γ, Hu IP-10, Hu IL-6, Hu RANTES, Hu TNF-α, Hu Il-1ra and Hu VEGF.

LITAF = assay: Western blot of LPS-induced LITAF gene expression in human monocytes; type: cell-based; conditions: 0.1 μg/ml E. coli LPS 3 hours, then peptide 16 hours, FIG. 8B lane 5
Description: Western blot analysis. […] Cells were then incubated overnight in RPMI 1640 medium with 10% FBS at 37° C., in a humidified atmosphere containing 5% CO2. The proteins from the treated cells were extracted with lysis buffer (Promega) plus a cocktail of […] (Sigma) following the manufacturer's instructions and suspended in SDS sample buffer, heated at 95° C. for 5 min, then applied to SDS-polyacrylamide gels and detected by Western blotting.
To further examine the effects of pep12 on LPS-induced LITAF gene expression and LITAF-dependent TNF-α production, analyses of Western blot and ELISA were performed. Human monocytes (1×10^6) were stimulated with 0.1 μg/ml E. coli LPS for 3 hours and washed with PBS prior to treatment with peptides for 16 hours with either pep12 (#5) or pepSC as control (#4) using a Chariot kit (Active motif, Carlsbad, Calif.) or transfected with no DNA (#1) or with pGLP700 DNA (#2) as negative controls or with p53-1 DNA (#3) as a positive control. The cells were incubated in appropriate medium at 37° C., 5% CO2 overnight. The supernatants from cell cultures were measured by ELISA (Abraxis, Warminster, Pa.) and the extracts were detected by Western blot with antibodies against LITAF and actin (as a control).

[1] = peptide 10 μg/ml plus pGLP700, FIG. 7 #7 and #10

Substance: SKMQQTH [pepSC, reference compound]
- LITAF promoter activity (untreated pGLP700 #2 = 100%) (LITAF promoter; [1]): 95%
- Luciferase activity with peptide alone (LITAF promoter): 1.5%
- LPS-induced TNF-α production, % of control (TNF-α): could not affect LPS-induced TNF-α secretion

Substance: KQSQHMT [pep12]
- Concentration of active cytokine: Hu IL-13 (human cytokines): only minor reductions
- Concentration of active cytokine: Hu PDGF-β (human cytokines): only minor reductions
- Concentration of active cytokine: Hu RANTES (human cytokines): only minor reductions
- Concentration of active cytokine: IL-2, IL-5, IL-7, IL-12, Eotaxin, IL-1β, IL-15, IFN-γ, IP-10, IL-6, TNF-α, IL-1ra, VEGF (human cytokines; FIGS. 9A-9C): significant reduction
- LPS-induced LITAF gene expression (LITAF): inhibition of LPS-induced LITAF gene expression
- LITAF promoter activity (LITAF promoter; pep12 10 μg/ml plus pGLP500, FIG. 7 #16 vs #15): did not affect LITAF promoter activity
- LITAF promoter activity, % of control (LITAF promoter; pep12 10 μg/ml plus pGLP550, FIG. 7 #14 vs #13): 23%
- LITAF promoter activity, % of control (LITAF promoter; pep12 10 μg/ml plus pGLP700, FIG. 7 #12 vs #11): 15%
- LITAF promoter activity (untreated pGLP700 #2 = 100%) (LITAF promoter; peptide 0.1 μg/ml plus pGLP700, FIG. 7 #8): 66%
- LITAF promoter activity (untreated pGLP700 #2 = 100%) (LITAF promoter; [1]): 15%
- Luciferase activity with peptide alone (LITAF promoter): 2.3%
- LITAF promoter activity (untreated pGLP700 #2 = 100%) (LITAF promoter; peptide plus pGLP700, FIG. 7 #9, concentration not clearly printed): 40%
- LPS-induced TNF-α production, % of control (TNF-α): ≤ 70%
